Each structure is given as a SMILES string. Converted amounts (≈) assume the structure as drawn. “And” between values parts separate entries of the source, which are not always exact repeats. Equal entries are not always repeated. A value given as a limit tells only on which side of the number the result lay.

Broadly, the MIC is the lowest concentration found to suppress growth. Usually CC50 stands for the concentration that lowers cell viability or growth by half.

In series [1] the test system is Mycobacterium tuberculosis. Put plainly: Antitubercular activity against Mycobacterium tuberculosis H37Rv after 4 weeks. The following applies: 672 h. The series is classed as functional.
Series [2] can be described thus: Cytotoxicity against mouse MBMDMphi cells after 48 hrs by MTS assay. Type of series: cell-based.
A short description of series [3]: Cytotoxicity against african green monkey Vero cells after 24 hrs by MTS assay. Conditions: chlorocebus sabaeus. The series is classed as cell-based.
Series [4] deals with Mycobacterium tuberculosis. Briefly: Ratio of ethambutol MIC to compound MIC for Mycobacterium tuberculosis H37Rv after 4 weeks. The series is classed as functional.

With `CC(C)(C)n1nnnc1C(c1ccccc1)N1CCN(C2=NC(=O)/C(=C/c3ccccc3)S2)CC1` (centres undefined), the MIC in series [1] is more than 12.5 µg/mL.

For the molecule `CC(C)(C)n1nnnc1C(c1ccccc1F)N1CCN(C2=NC(=O)/C(=C/c3ccccc3)S2)CC1` (centres undefined), the MIC in series [1] is 6.25 µg/mL and 12.3 µM. Further, the CC50 at 48 h in series [2] is more than 100 µM. The CC50 at 24 h in series [3] was more than 100 µM.

With `CC(C)(C)n1nnnc1C(c1ccc(F)cc1)N1CCN(C2=NC(=O)/C(=C/c3ccccc3)S2)CC1` (centres undefined), the Ratio in series [4] was determined as 3. Besides, the minimal inhibitory concentration (MIC) in series [1] was 1.56 µg/mL and 3.08 µM. This molecule displayed a half-maximal cytotoxic concentration (CC50) at 48 h in series [2] of more than 100 µM. Also, the CC50 at 24 h in series [3] is more than 100 µM.

As for `CC(C)(C)n1nnnc1C(c1ccccc1Cl)N1CCN(C2=NC(=O)/C(=C/c3ccccc3)S2)CC1` (centres undefined), the MIC in series [1] was 12.5 µg/mL and 23.9 µM. In series [2], this molecule showed a CC50 at 48 h of more than 100 µM. For the same molecule, in series [3], the CC50 at 24 h was more than 100 µM.

Consider `CC(C)(C)n1nnnc1C(c1ccc(Cl)cc1)N1CCN(C2=NC(=O)/C(=C/c3ccccc3)S2)CC1` (centres undefined), for which the MIC in series [1] is 6.25 µg/mL and 11.9 µM. The CC50 at 48 h in series [2] was more than 100 µM. In addition, the CC50 at 24 h in series [3] is more than 100 µM.

Take `CC(C)c1ccc(C(c2nnnn2C(C)(C)C)N2CCN(C3=NC(=O)/C(=C/c4ccccc4)S3)CC2)cc1` (centres undefined): in series [1], the MIC was more than 12.5 µg/mL. This molecule yielded a CC50 at 48 h in series [2] of more than 100 µM. This molecule also displayed a CC50 at 24 h in series [3] of more than 100 µM.

`COc1ccc(C(c2nnnn2C(C)(C)C)N2CCN(C3=NC(=O)/C(=C/c4ccccc4)S3)CC2)cc1` (centres undefined): the Ratio in series [4] is 3. In addition, the minimum inhibitory concentration (MIC) in series [1] was 1.56 µg/mL and 3.01 µM. This molecule also had a CC50 at 48 h in series [2] of more than 100 µM. Further, in series [3], the CC50 at 24 h was more than 100 µM.

For `COc1ccc(C(c2nnnn2C(C)(C)C)N2CCN(C3=NC(=O)/C(=C/c4ccccc4)S3)CC2)cc1OC` (centres undefined), in series [1], the MIC is 6.25 µg/mL and 11.4 µM. The CC50 at 48 h in series [2] is more than 100 µM. In addition, the CC50 at 24 h in series [3] was more than 100 µM.

With `COc1cc(C(c2nnnn2C(C)(C)C)N2CCN(C3=NC(=O)/C(=C/c4ccccc4)S3)CC2)cc(OC)c1OC` (centres undefined), the MIC in series [1] was 6.25 µg/mL and 10.8 µM. In addition, the CC50 at 48 h in series [2] is more than 100 µM. In series [3], this molecule had a CC50 at 24 h of more than 100 µM.

`CC(C)(C)n1nnnc1C(c1ccncc1)N1CCN(C2=NC(=O)/C(=C/c3ccccc3)S2)CC1` (centres undefined): the MIC in series [1] is 6.25 µg/mL and 12.8 µM.

In the case of `CC(C)(C)n1nnnc1C(c1cccnc1)N1CCN(C2=NC(=O)/C(=C/c3ccccc3)S2)CC1` (centres undefined), in series [1], the MIC was 6.25 µg/mL and 12.8 µM. The molecule also returned a CC50 at 48 h in series [2] of more than 100 µM. In series [3], the 50% cytotoxic concentration (CC50) at 24 h was more than 100 µM.

Turning to `CC(C)(C)n1nnnc1C(c1ccoc1)N1CCN(C2=NC(=O)/C(=C/c3ccccc3)S2)CC1` (centres undefined), the MIC in series [1] was 6.25 µg/mL and 13.1 µM. Further, the midpoint of cytotoxicity in series [2], the CC50 at 48 h, lay at 45.9 µM. Also, the CC50 at 24 h in series [3] was more than 100 µM.

Consider `O=C1N=C(N2CCN(C(c3ccccc3)c3nnnn3C3CCCCC3)CC2)S/C1=C\c1ccccc1` (centres undefined), for which the MIC in series [1] was 6.25 µg/mL and 12.1 µM. In series [2], this molecule showed a CC50 at 48 h of more than 100 µM. Besides, the 50% cytotoxic concentration (CC50) at 24 h in series [3] was more than 100 µM.

The molecule `O=C1N=C(N2CCN(C(c3ccccc3F)c3nnnn3C3CCCCC3)CC2)S/C1=C\c1ccccc1` (centres undefined) yielded an MIC in series [1] of 12.5 µg/mL (≈ 23.5 µM).

In the case of `O=C1N=C(N2CCN(C(c3ccc(F)cc3)c3nnnn3C3CCCCC3)CC2)S/C1=C\c1ccccc1` (centres undefined), the minimal inhibitory concentration (MIC) in series [1] is 6.25 µg/mL and 11.7 µM. In series [2], this molecule registered a CC50 at 48 h of more than 100 µM. The CC50 at 24 h in series [3] was more than 100 µM.

For `O=C1N=C(N2CCN(C(c3ccccc3Cl)c3nnnn3C3CCCCC3)CC2)S/C1=C\c1ccccc1` (centres undefined), the MIC in series [1] is 6.25 µg/mL and 11.4 µM. The same molecule returned a half-maximal cytotoxic concentration (CC50) at 48 h in series [2] of more than 100 µM. The molecule further gave a CC50 at 24 h in series [3] of more than 100 µM.

Take `O=C1N=C(N2CCN(C(c3ccc(Cl)cc3)c3nnnn3C3CCCCC3)CC2)S/C1=C\c1ccccc1` (centres undefined): in series [1], the MIC is 12.5 µg/mL and 22.8 µM.

For `CC(C)c1ccc(C(c2nnnn2C2CCCCC2)N2CCN(C3=NC(=O)/C(=C/c4ccccc4)S3)CC2)cc1` (centres undefined), in series [1], the MIC was 6.25 µg/mL and 11.2 µM. The molecule also displayed a CC50 at 48 h in series [2] of more than 100 µM. In addition, the CC50 at 24 h in series [3] is more than 100 µM.

With `COc1ccc(C(c2nnnn2C2CCCCC2)N2CCN(C3=NC(=O)/C(=C/c4ccccc4)S3)CC2)cc1` (centres undefined), the MIC in series [1] was 6.25 µg/mL and 11.5 µM.

For `COc1ccc(C(c2nnnn2C2CCCCC2)N2CCN(C3=NC(=O)/C(=C/c4ccccc4)S3)CC2)cc1OC` (centres undefined), in series [1], the MIC was 6.25 µg/mL and 10.9 µM.

Consider `COc1cc(C(c2nnnn2C2CCCCC2)N2CCN(C3=NC(=O)/C(=C/c4ccccc4)S3)CC2)cc(OC)c1OC` (centres undefined), for which, in series [1], the MIC is 6.25 µg/mL and 10.3 µM. Further, the CC50 at 48 h in series [2] is more than 100 µM. The CC50 at 24 h in series [3] was more than 100 µM.

For `O=C1N=C(N2CCN(C(c3ccncc3)c3nnnn3C3CCCCC3)CC2)S/C1=C\c1ccccc1` (centres undefined), the MIC in series [1] is 6.25 µg/mL and 12.1 µM.

With `O=C1N=C(N2CCN(C(c3cccnc3)c3nnnn3C3CCCCC3)CC2)S/C1=C\c1ccccc1` (centres undefined), in series [1], the MIC is 6.25 µg/mL and 12.1 µM.

For the molecule `O=C1N=C(N2CCN(C(c3ccoc3)c3nnnn3C3CCCCC3)CC2)S/C1=C\c1ccccc1` (centres undefined), the MIC in series [1] was 6.25 µg/mL and 12.4 µM.

With `CC[C@@H](CO)NCCN[C@@H](CC)CO` [ETHAMBUTOL], the MIC in series [1] is 2 µg/mL and 9.78 µM.

Take `NNC(=O)c1ccncc1` [ISONIAZID]: in series [1], the MIC is 0.02 µg/mL and 0.14 µM.

As to `NC(=O)c1cnccn1` [PYRAZINAMIDE], the MIC in series [1] was 12.5 µg/mL and 102 µM.

For the origin of these results see ChEMBL document CHEMBL3352403, “New class of methyl tetrazole based hybrid of (Z)-5-benzylidene-2-(piperazin-1-yl)thiazol-4(%H)-one as potent antitubercular agents” (Bioorg Med Chem Lett, 2014).
